Laboratory results reported in ChEMBL document CHEMBL1201862, “PubChem BioAssay data set” (2004).
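Interpolation was linear, between the two tested concentrations surrounding the appropriate level; five concentrations were tested over 48 hours in 96-well plates. GI50 = concentration required for 50% inhibition of growth.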 Activity calls are given as the source filed them. No stated cut-off is given here; in the data, active = GI50 up to about 1.1 µM and inactive = higher.

Tests used:
Assay in all cases: growth of human tumour cells (NCI), 48 h
786-0 = test system: 786-0
A498 = test system: A498
A549 = test system: A549
ACHN = test system: ACHN
BT-549 = test system: BT-549
CCRF-CEM = test system: CCRF-CEM
COLO 205 = test system: COLO 205
DU-145 = test system: DU-145
EKVX = test system: EKVX
HCC 2998 = test system: HCC 2998
HCT-116 = test system: HCT-116
HCT-15 = test system: HCT-15
HL-60 = test system: HL-60
HOP-62 = test system: HOP-62
HOP-92 = test system: HOP-92
HT-29 = test system: HT-29
Hs-578T = test system: Hs-578T
IGROV-1 = test system: IGROV-1
K562 = test system: K562
KM12 = test system: KM12
LOX IMVI = test system: LOX IMVI
M14 = test system: M14
MCF7 = test system: MCF7
MDA-MB-231 = test system: MDA-MB-231
MDA-MB-435 = test system: MDA-MB-435
MDA-N = test system: MDA-N
MOLT-4 = test system: MOLT-4
Malme-3M = test system: Malme-3M
NCI-H226 = test system: NCI-H226
NCI-H23 = test system: NCI-H23
NCI-H460 = test system: NCI-H460
NCI-H522 = test system: NCI-H522
NCI/ADR-RES = test system: NCI/ADR-RES
OVCAR-3 = test system: OVCAR-3
OVCAR-4 = test system: OVCAR-4
OVCAR-5 = test system: OVCAR-5
OVCAR-8 = test system: OVCAR-8
PC-3 = test system: PC-3
RPMI-8226 = test system: RPMI-8226
RXF 393 = test system: RXF 393
SF-268 = test system: SF-268
SF-295 = test system: SF-295
SF-539 = test system: SF-539
SK-MEL-28 = test system: SK-MEL-28
SK-MEL-2 = test system: SK-MEL-2
SK-MEL-5 = test system: SK-MEL-5
SK-OV-3 = test system: SK-OV-3
SN12C = test system: SN12C
SNB-19 = test system: SNB-19
SNB-75 = test system: SNB-75
SR = test system: SR
SW-620 = test system: SW-620
T47D = test system: T47D
TK-10 = test system: TK-10
U-251 = test system: U-251
UACC-257 = test system: UACC-257
UACC-62 = test system: UACC-62
UO-31 = test system: UO-31

SMILES: N#CC12CC=C(c3ccccc3)N=C1NC(c1ccccc1)=CC2 (stereo not drawn)
- GI50 (786-0): > 100 µM (inactive)
- GI50 (A498): 23.2 µM (inactive)
- GI50 (A549): 54 µM (inactive)
- GI50 (ACHN): 57.4 µM (inactive)
- GI50 (BT-549): 40.6 µM (inactive)
- GI50 (CCRF-CEM): 32.2 µM (inactive)
- GI50 (COLO 205): 30.8 µM (inactive)
- GI50 (DU-145): 57.5 µM (inactive)
- GI50 (EKVX): 52.2 µM (inactive)
- GI50 (HCC 2998): > 100 µM (inactive)
- GI50 (HCT-116): 47 µM (inactive)
- GI50 (HCT-15): 69.7 µM
- GI50 (HL-60): 22.4 µM (inactive)
- GI50 (HOP-62): > 100 µM (inactive)
- GI50 (HOP-92): 16 µM (inactive)
- GI50 (HT-29): 57.3 µM (inactive)
- GI50 (Hs-578T): > 100 µM (inactive)
- GI50 (IGROV-1): > 100 µM (inactive)
- GI50 (K562): 31.6 µM (inactive)
- GI50 (KM12): 51.5 µM (inactive)
- GI50 (LOX IMVI): 30.8 µM (inactive)
- GI50 (M14): 42.1 µM (inactive)
- GI50 (MCF7): 50 µM (inactive)
- GI50 (MDA-MB-231): > 100 µM (inactive)
- GI50 (MDA-MB-435): 35.6 µM (inactive)
- GI50 (MDA-N): 37.3 µM (inactive)
- GI50 (MOLT-4): 21.8 µM (inactive)
- GI50 (Malme-3M): > 100 µM (inactive)
- GI50 (NCI-H226): 60.8 µM (inactive)
- GI50 (NCI-H23): 84.9 µM (inactive)
- GI50 (NCI-H460): 57.5 µM (inactive)
- GI50 (NCI-H522): 46.7 µM (inactive)
- GI50 (NCI/ADR-RES): 53.5 µM (inactive)
- GI50 (OVCAR-3): > 100 µM (inactive)
- GI50 (OVCAR-4): 29.7 µM (inactive)
- GI50 (OVCAR-5): > 100 µM (inactive)
- GI50 (OVCAR-8): 48.2 µM (inactive)
- GI50 (PC-3): 33.9 µM (inactive)
- GI50 (RPMI-8226): 28.8 µM (inactive)
- GI50 (RXF 393): > 100 µM (inactive)
- GI50 (SF-268): > 100 µM (inactive)
- GI50 (SF-295): 57.7 µM (inactive)
- GI50 (SF-539): > 100 µM (inactive)
- GI50 (SK-MEL-28): > 100 µM (inactive)
- GI50 (SK-MEL-2): 56.4 µM (inactive)
- GI50 (SK-MEL-5): 19 µM (inactive)
- GI50 (SK-OV-3): > 100 µM (inactive)
- GI50 (SN12C): > 100 µM (inactive)
- GI50 (SNB-19): 90.8 µM (inactive)
- GI50 (SNB-75): 49 µM (inactive)
- GI50 (SR): 29.9 µM (inactive)
- GI50 (SW-620): 98.9 µM (inactive)
- GI50 (T47D): 34.7 µM (inactive)
- GI50 (TK-10): > 100 µM (inactive)
- GI50 (U-251): 85.1 µM (inactive)
- GI50 (UACC-257): 48.6 µM (inactive)
- GI50 (UACC-62): 86.7 µM (inactive)
- GI50 (UO-31): 40.3 µM (inactive)
